According to patent US20260250269A1, “APOPTOSIS INHIBITOR SALTS FOR CANCER” (priority 2022, published 2026):
Several values for one entry are separate records, joined by “and”; a condition that tells them apart may be missing. Equal entries are not always repeated. Where two headings read alike, the source gives them in different places.

How the values were obtained:
[1] = Competitive equilibration experiments of Form A and Form B; assay type: physicochemical
Method: About 5 mg of Form A and about 5 mg of the mixture of Form A and Form B were added to 0.2 mL saturated solutions in following solvents: water, ethanol, acetone, acetonitrile, ethyl acetate, and pyridine/water (1/9 v/v). Obtained suspensions were stirred at 25° C. and 50° C., respectively, for a duration between 4 days to 4 weeks. Solid parts (wet cakes) were isolated by centrifugation filtration and investigated by XRPD.

[2] = for Solubility / Solubility (in words): 37° C.; for Solubility: 24 hours; for Solubility (in words): PBS buffer
[3] = Solid-state thermal stability of the pamoate salt Form B; assay type: physicochemical
Method: Form B was placed at 25° C./92% relative humidity (RH) in an open container, at 40° C./75% RH in an open container, and at 60° C. in a tight container for 1 week. Samples were characterized by XRPD and HPLC and inspected for appearance including color change.

[4] = Hygroscopicity of Form B by dynamic vapor sorption (DVS); assay type: physicochemical
Method: Water sorption and desorption behavior of Form B was investigated by dynamic vapor sorption (DVS) at 25° C. with a cycle of 40-0-95-0-40% RH, dm/dt 0.002, minimum equilibration time of 60 min and maximum equilibration time 360 min.

[5] = Compression, dry grinding and wet granulation simulation experiments; assay type: physicochemical
Method: Compression: About 50 mg of Form B was compressed for 5 minutes under 10 MPa with a hydraulic press. Potential form change and degree of crystallinity were evaluated by XRPD.
Dry Grinding: About 20 mg of Form B was ground manually with a mortar and a pestle for 5 min. Potential form change and degree of crystallinity were evaluated by XRPD.
Wet Granulation: Water or ethanol was added drop wise to about 20 mg of Form B until the sample was wetted sufficiently. Wet sample was ground gently with a mortar and a pestle for 3 min. Post granulation sample was dried under ambient condition for 10 min. Potential form change and degree of crystallinity were evaluated by XRPD.

[6] = Solid form conversion on drying, heating or storage (XRPD); assay type: physicochemical
[7] = after solubility test in mouse plasma
[8] = after solubility test in pH 7.4 PBS buffer
[9] = 25° C./92% RH open container, 1 week
[10] = 40° C./75% RH open container, 1 week
[11] = 60° C. in a tight container, 1 week
[12] = relative humidity 0.0 at 25° C.
[13] = relative humidity 10.0 at 25° C.
[14] = relative humidity 20.0 at 25° C.
[15] = relative humidity 30.0 at 25° C.
[16] = relative humidity 40.0 at 25° C.
[17] = relative humidity 50.0 at 25° C.
[18] = relative humidity 60.0 at 25° C.
[19] = relative humidity 70.0 at 25° C.
[20] = relative humidity 80.0 at 25° C.
[21] = relative humidity 90.0 at 25° C.
[22] = relative humidity 95.0 at 25° C.

With COCCn1c2c([n+](Cc3cnccn3)c1C)C(=O)c1ccccc1C2=O.COCCn1c2c([n+](Cc3cnccn3)c1C)C(=O)c1ccccc1C2=O.O=C([O-])c1cc2ccccc2c(Cc2c(O)c(C(=O)[O-])cc3ccccc23)c1O [Form A] the “Solid form conversion in competitive experiments” value ([1]; in ethanol, acetone, ACN and pyridine/water) was “converted to Form B”, the “Form change by XRPD after solubility test” value [2] was “no form change” and the “Water solubility (in words)” value [2] was “extremely low”. The “XRPD of residual solids” value [2, 7] was “Form A”, the “XRPD of residual solids” value [2, 8] was “Form A” and the “XRPD of residual solids” value ([2]; after solubility test in water) was “Form A”. The Solubility ([2]; mouse plasma) was 436 µg/mL and 403 µg/mL, the Solubility ([2]; pH 7.4, PBS buffer) was 84 µg/mL and 86 µg/mL and the Solubility ([2]; water) was 12 µg/mL and 13 µg/mL. The “Solubility (in words)” value ([2]; water, mouse plasma) was “comparable low solubility”.

For COCCn1c2c([n+](Cc3cnccn3)c1C)C(=O)c1ccccc1C2=O.COCCn1c2c([n+](Cc3cnccn3)c1C)C(=O)c1ccccc1C2=O.O=C([O-])c1cc2ccccc2c(Cc2c(O)c(C(=O)[O-])cc3ccccc23)c1O [Form B], the “Appearance (Color) change” value [3, 9] was “None”, the “Purity by HPLC” value [3, 9] was 99.4% and the XRPD [3, 9] was “Form B”. The “Physical and chemical stability” value ([3]; 25° C./92% RH, 40° C./75% RH, 60° C., 1 week) was “physically stable and chemically stable”, the “Appearance (Color) change” value [3, 10] was “None” and the “Purity by HPLC” value [3, 10] was 99.5%. The XRPD [3, 10] was “Form B”, the “Appearance (Color) change” value [3, 11] was “none” and the “Purity by HPLC” value [3, 11] was 99.4%. The XRPD [3, 11] was “Form B”, the “Appearance (Color) change” value ([3]; Initial) was “None” and the “Purity by HPLC” value ([3]; Initial) was 99.3%. The XRPD ([3]; Initial) was “Form B”, the “Solid form by XRPD after the DVS test” value [4] was “still Form B” and the “Hygroscopicity (in words)” value ([4]; DVS at 25° C.) was “slightly hygroscopic”. For the same compound, the “1st desorption weight % change” value [4, 12] was 0.02 weight %, the “1st sorption weight % change” value [4, 12] was 0.02 weight % and the “2nd desorption weight % change” value [4, 12] was 0.00 weight %. For the same compound, the “2nd sorption weight % change” value [4, 12] was 0.00 weight %, the “1st desorption weight % change” value [4, 13] was 0.06 weight % and the “1st sorption weight % change” value [4, 13] was 0.06 weight %. For the same compound, the “2nd desorption weight % change” value [4, 13] was 0.05 weight %, the “2nd sorption weight % change” value [4, 13] was 0.04 weight % and the “1st desorption weight % change” value [4, 14] was 0.09 weight %. For the same compound, the “1st sorption weight % change” value [4, 14] was 0.08 weight %, the “2nd desorption weight % change” value [4, 14] was 0.08 weight % and the “2nd sorption weight % change” value [4, 14] was 0.06 weight %. The “1st desorption weight % change” value [4, 15] was 0.13 weight %, the “1st sorption weight % change” value [4, 15] was 0.11 weight % and the “2nd desorption weight % change” value [4, 15] was 0.10 weight %. The “2nd sorption weight % change” value [4, 15] was 0.08 weight %, the “1st desorption weight % change” value [4, 16] was 0.16 weight % and the “1st sorption weight % change” value [4, 16] was 0.12 weight %. For the same compound, the “2nd desorption weight % change” value [4, 16] was 0.13 weight %, the “2nd sorption weight % change” value [4, 16] was 0.10 weight % and the “1st sorption weight % change” value [4, 17] was 0.15 weight %. For the same compound, the “2nd desorption weight % change” value [4, 17] was 0.16 weight %, the “1st sorption weight % change” value [4, 18] was 0.17 weight % and the “2nd desorption weight % change” value [4, 18] was 0.18 weight %. For the same compound, the “1st sorption weight % change” value [4, 19] was 0.20 weight %, the “2nd desorption weight % change” value [4, 19] was 0.21 weight % and the “1st sorption weight % change” value [4, 20] was 0.23 weight %. For the same compound, the “2nd desorption weight % change” value [4, 20] was 0.25 weight %, the “1st sorption weight % change” value [4, 21] was 0.35 weight % and the “2nd desorption weight % change” value [4, 21] was 0.38 weight %. For the same compound, the “1st sorption weight % change” value [4, 22] was 0.64 weight %, the “2nd desorption weight % change” value [4, 22] was 0.64 weight % and the Water absorbed ([4]; up to 95% RH at 25° C.) was “about 0.64%”. The “Form change and crystallinity by XRPD after compression” value ([5]; 5 minutes under 10 MPa, hydraulic press) was “no form change and no obvious crystallinity decrease”, the “Form change and crystallinity by XRPD after dry grinding” value ([5]; ground manually with mortar and pestle for 5 min) was “no form change and slight crystallinity decrease” and the “Form change and crystallinity by XRPD after wet granulation” value ([5]; water or ethanol, ground 3 min, dried 10 min) was “no form change and no obvious crystallinity decrease”. For the same compound, the “Relative stability among solid forms” value ([1]; among Forms A-J) was “most stable form among Forms A-J”, the “Form change by XRPD after solubility test” value [2] was “no form change” and the “XRPD of residual solids” value [2, 7] was “Form B”. The “XRPD of residual solids” value [2, 8] was “Form B”, the “XRPD of residual solids” value ([2]; after solubility test in water) was “Form B” and the Solubility ([2]; mouse plasma) was 342 µg/mL and 344 µg/mL. The Solubility ([2]; pH 7.4, PBS buffer) was 78 µg/mL, the Solubility ([2]; water) was 14 µg/mL and 13 µg/mL and the “Solubility (in words)” value ([2]; water, mouse plasma) was “comparable low solubility”.

With CCO.COCCn1c2c([n+](Cc3cnccn3)c1C)C(=O)c1ccccc1C2=O.COCCn1c2c([n+](Cc3cnccn3)c1C)C(=O)c1ccccc1C2=O.O=C([O-])c1cc2ccccc2c(Cc2c(O)c(C(=O)[O-])cc3ccccc23)c1O [Form C] the Solid form conversion ([6]; exposure to ambient condition about 2 hours and drying at 25° C. under vacuum about 2 hours) was “converted to a mixture of Form A and Form B”.

For CC(=O)N(C)C.COCCn1c2c([n+](Cc3cnccn3)c1C)C(=O)c1ccccc1C2=O.COCCn1c2c([n+](Cc3cnccn3)c1C)C(=O)c1ccccc1C2=O.O=C([O-])c1cc2ccccc2c(Cc2c(O)c(C(=O)[O-])cc3ccccc23)c1O [Form G], the “Solid form obtained on storage” value ([6]; storing at 25° C. for about 1 day) was “Form H”.

With CC(=O)N(C)C.COCCn1c2c([n+](Cc3cnccn3)c1C)C(=O)c1ccccc1C2=O.COCCn1c2c([n+](Cc3cnccn3)c1C)C(=O)c1ccccc1C2=O.O=C([O-])c1cc2ccccc2c(Cc2c(O)c(C(=O)[O-])cc3ccccc23)c1O [Form H] the Solid form conversion ([6]; after heating to 170° C.) was “converted to a mixture of Form A and Form B”.
